According to US20250186490A1, “METHOD OF CHEMICALLY TREATING OR CULTIVATING MACROPHAGES AND THEIR THERAPEUTIC APPLICATIONS IN FIBROTIC DISEASES” (MAPONOS THERAPEUTICS INC., priority 2022, published 2025):

Experiments:
[1] = tested on: Bone Marrow-Derived Macrophages (BMDM); test: MCP-1 ELISA on culture supernatant of MRCi-treated macrophages cultured under hypoxia; assay type: cell-based, mouse; conditions: then hypoxia, vs untreated
Method: (§1) In this example, macrophages were isolated and cultivated from the source of murine bone marrow. Eight-week-old male C57/BL6 mice (The Jackson Laboratory, ME, USA) were sacrificed by cervical dislocation. The tibia and femur were separated, and the bone marrow was flushed out using ice-cold PBS solution. Bone marrow cells were then resuspended into single-cell suspension and washed with ice-cold PBS. The cells were treated with Red Blood Cell Lysis Buffer (MilliporeSigma, MA, USA). After the treatment, the cell suspension was washed with ice-cold PBS then seeded with a culture medium.
(§2) The culture medium for the BMDM used in this example includes RPMI1640 (Thermo Fisher Scientific, MA, USA) containing 10% heat-inactivated Fetal Bovine Serum (Gemini Bio, CA, USA), supplied with 100 ng/ml of Recombinant Mouse M-CSF Protein (R&D Systems, MN, USA). Fresh medium was supplied on day three and day five post isolation. On day six of the culturing process, 1 μM of Rotenone (MilliporeSigma, MA, USA) in DMSO solution was added into the culturing medium and incubated for 2 hours with the cells. Then the culture was replaced with fresh medium and was placed into a hypoxia culture chamber with 1% oxygen supply and 5% carbon dioxide at 37° C. On day seven, the cells were ready for downstream treatments. In the untreated group, only vehicle (DMSO) was added as the control. In addition to Rotenone, the following mitochondrial respiratory chain inhibitors (MRCi) were also tested following the same culturing process: Deguclin (10 μM), Piericidin A (0.1 μM), and Capsaicin (5 μM).
To evaluate the enhanced anti-fibrosis ability of the chemically-treated BMDM, ELISA assays were applied using commercially purchased testing kits. In this example, a Mouse MCP-1 ELISA Kit and a Mouse IP-10 ELISA Kit (CXCL10) (both from Abcam plc, Cambridge, UK) were used. Tests using both kits were performed according to the instructions provided by Abcam. […]

[2] = tested on: Bone Marrow-Derived Macrophages (BMDM); test: CXCL10 (IP-10) ELISA on culture supernatant of MRCi-treated macrophages cultured under hypoxia; assay type: cell-based, mouse; conditions: then hypoxia (1% oxygen), vs untreated
Method: as §1
as §2, with “In addition to Rotenone, the following mitochondrial respiratory chain inhibitors (MRCi) were also tested following the same culturing process: Deguclin (10 μM), Piericidin A (0.1 μM), and Capsaicin (5 μM).” left out

With `C/C=C(\C)[C@H](O)[C@H](C)/C=C(C)/C=C/C/C(C)=C/Cc1nc(OC)c(OC)c(O)c1C` [Piericidin A] the MCP-1 level ([1]; BMDM treated with 0.1 μM Piericidin A) was “reduce the MCP-1 level”.
`COc1cc(CNC(=O)CCCC/C=C/C(C)C)ccc1O` [capsaicin, Capsaicin] was tested, and the MCP-1 level ([1]; BMDM treated with 5 μM capsaicin) was “reduce the MCP-1 level”.
`COc1cc2c(cc1OC)[C@@H]1C(=O)c3ccc4c(c3O[C@@H]1CO2)C=CC(C)(C)O4` [deguelin, Deguelin] was tested, and the “CXCL 10 level” value ([2]; BMDM treated with 10 μM deguelin for 2 hours) was “increased CXCL 10 level”.
`C=C(C)[C@H]1Cc2c(ccc3c2O[C@@H]2COc4cc(OC)c(OC)cc4[C@@H]2C3=O)O1` [rotenone, Rotenone] was tested, and the “CXCL 10 level” value ([2]; BMDM treated with 1 μM rotenone for 2 hours) was “increased CXCL 10 level” and the MCP-1 level ([1]; BMDM treated with 1 μM rotenone) was “reduce the MCP-1 level”.
